Assay results reported in patent publication US20240228502A1, “2-PHENYLAMINO PYRROLOPYRIMIDINES AS ACK1 INHIBITORS” (H. LEE MOFFITT CANCER CENTER AND RESEARCH INSTITUTE, INC., priority 2021, published 2024).

Columns and labels:
[1] = molecular target: T1, ACK1 (Homo sapiens, UniProt Q07912); assay: ACK1 inhibition (ACK1 IC50); format: biochemical
[2] = system: UKE1; assay: Cell viability, UKE1; format: cell-based
[3] = system: MDA-MB-231; assay: Cell viability, MDA-MB-231; format: cell-based
[4] = molecular target: T1, ACK1; assay: DSF = Differential Scanning Fluorimetry, thermal shift; format: binding
[5] = Homo sapiens, MDA-MB-231, MDA-MB-231

T1 sequence (Q07912 whole entry): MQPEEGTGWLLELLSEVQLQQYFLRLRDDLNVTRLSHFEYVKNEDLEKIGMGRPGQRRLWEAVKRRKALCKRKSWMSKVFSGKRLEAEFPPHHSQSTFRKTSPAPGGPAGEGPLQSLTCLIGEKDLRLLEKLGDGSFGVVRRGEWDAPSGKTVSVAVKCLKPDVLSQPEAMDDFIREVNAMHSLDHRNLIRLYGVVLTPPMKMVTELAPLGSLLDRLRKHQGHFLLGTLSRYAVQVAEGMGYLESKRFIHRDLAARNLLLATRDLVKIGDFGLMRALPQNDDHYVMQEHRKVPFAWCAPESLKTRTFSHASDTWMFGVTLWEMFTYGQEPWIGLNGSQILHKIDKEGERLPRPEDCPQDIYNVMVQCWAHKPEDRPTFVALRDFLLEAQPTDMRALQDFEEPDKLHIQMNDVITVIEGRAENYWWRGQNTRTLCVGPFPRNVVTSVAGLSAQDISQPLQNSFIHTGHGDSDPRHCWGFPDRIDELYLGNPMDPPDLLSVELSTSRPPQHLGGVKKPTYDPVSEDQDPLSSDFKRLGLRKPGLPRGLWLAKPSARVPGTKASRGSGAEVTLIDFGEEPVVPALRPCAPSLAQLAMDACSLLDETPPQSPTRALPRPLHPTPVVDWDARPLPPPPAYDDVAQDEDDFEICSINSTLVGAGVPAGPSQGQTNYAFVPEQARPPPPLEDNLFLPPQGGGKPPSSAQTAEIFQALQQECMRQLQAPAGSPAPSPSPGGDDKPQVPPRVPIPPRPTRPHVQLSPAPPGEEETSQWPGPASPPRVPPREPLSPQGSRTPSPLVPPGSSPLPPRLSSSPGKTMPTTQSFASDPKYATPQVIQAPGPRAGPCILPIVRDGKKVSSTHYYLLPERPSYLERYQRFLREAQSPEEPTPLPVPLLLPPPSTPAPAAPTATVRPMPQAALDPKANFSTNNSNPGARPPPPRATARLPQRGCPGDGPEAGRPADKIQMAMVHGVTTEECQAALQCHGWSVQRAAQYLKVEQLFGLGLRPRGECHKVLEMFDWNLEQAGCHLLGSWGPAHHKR

| SMILES | IC50 [1] [µM] | DSF (ΔTm (° C.)) [4] [°C] | other results |
| --- | --- | --- | --- |
| CN1CCN(c2ccc(Nc3ncc4ccn(CC5CCOCC5)c4n3)cc2)CC1 | < 0.25 | – | – |
| CN1CCN(c2cccc(Nc3ncc4ccn(CC5CCOCC5)c4n3)c2)CC1 | < 0.5 | – | – |
| COc1cc(N2CCN(C)CC2)ccc1Nc1ncc2ccn(CC3CCOCC3)c2n1 | < 0.25 | – | – |
| Cc1cn(CC2CCCO2)c2nc(Nc3ccc(N4CCN(C)CC4)cc3)ncc12 (stereo not drawn) | < 0.25 | – | – |
| CN1CCN(c2cccc(Nc3ncc4ccn(CC5CCCO5)c4n3)c2)CC1 (stereo not drawn) | < 0.25 | – | – |
| CC(C)Oc1cc(Nc2ncc3c(F)cn(CC4CCCO4)c3n2)ccc1C1CCN(C)CC1 (stereo not drawn) | < 0.25 | – | – |
| CN1CCN(c2ccc(Nc3ncc4ccn(CC5CCOCC5)c4n3)c(OC3CCC3)c2)CC1 | < 0.25 | – | – |
| Cn1cc(-c2ccc(Nc3ncc4ccn(CC5CCOCC5)c4n3)cc2)cn1 | < 0.25 | – | – |
| CC(C)Oc1cc(Nc2ncc3ccn(CC4CCCO4)c3n2)ccc1N1CCN(C)CC1 (stereo not drawn) | < 0.25 | – | EC50 ([2]; UKE1, UKE1): 1.1 µM; EC50 [3, 5]: 2 µM |
| Cn1cc(-c2ccc(Nc3ncc4ccn(CC5CCCO5)c4n3)cc2)cn1 (stereo not drawn) | < 0.25 | – | – |
| COc1cc(Nc2ncc3ccn(CC4CCCO4)c3n2)ccc1-c1cnn(C)c1 (stereo not drawn) | < 0.25 | – | – |
| Cc1cn(CC2CCOCC2)c2nc(Nc3ccc(-c4cnn(C)c4)c(OC(C)C)c3)ncc12 | < 0.25 | – | – |
| COc1cc(Nc2ncc3c(C)cn(CC4CCOCC4)c3n2)ccc1-c1cnn(C)c1 | < 0.25 | – | – |
| CN1CCN(c2ccc(Nc3ncc4ccn(CC5CCCO5)c4n3)cc2OCCO)CC1 (stereo not drawn) | < 0.25 | 5.3 | EC50 ([2]; UKE1): 0.71 µM; EC50 ([2]; UKE1, UKE1): 1.28 µM; EC50 [3, 5]: 0.72 µM; EC50 ([3]; MDA-MB-231): 1.28 µM |
| CC(C)COc1cc(Nc2ncc3ccn(CC4CCCO4)c3n2)ccc1N1CCN(C)CC1 (stereo not drawn) | < 0.25 | – | – |
| CN1CCN(c2ccc(Nc3ncc4ccn(CC5CCCO5)c4n3)cc2OC2CCCC2)CC1 (stereo not drawn) | < 0.25 | – | EC50 ([2]; UKE1, UKE1): 2.1 µM; EC50 [3, 5]: 2.1 µM; EC50 ([3]; MDA-MB-231): 1.05 µM |
| CN1CCN(c2ccc(Nc3ncc4ccn(CC5CCCO5)c4n3)cc2OC2CCC2)CC1 (stereo not drawn) | < 0.25 | – | EC50 ([2]; UKE1): 1.5 µM; EC50 ([2]; UKE1, UKE1): 1.72 µM; EC50 [3, 5]: 1.5 µM; EC50 ([3]; MDA-MB-231): 1.71 µM |
| CC(C)Oc1cc(Nc2ncc3ccn(CCc4ccccc4)c3n2)ccc1N1CCN(C)CC1 | < 0.25 | 4.5 | EC50 ([2]; UKE1, UKE1): 1.8 µM; EC50 [3, 5]: 3.42 µM |

| SMILES | IC50 [1] [µM] | DSF (ΔTm (° C.)) [4] [°C] | other results |
| --- | --- | --- | --- |
| CC(C)Oc1cc(Nc2ncc3ccn(CCc4ccccc4)c3n2)ccc1-c1cnn(C)c1 | < 0.75 | – | – |
| CC(C)Oc1cc(Nc2ncc3ccn(-c4cccc(NS(=O)(=O)C(C)C)c4)c3n2)ccc1N1CCN(C)CC1 | < 0.25 | 5.2 | EC50 ([2]; UKE1, UKE1): 0.31 µM; EC50 [3, 5]: 0.164 µM |
| COc1cc(Nc2ncc3ccn(-c4cccc(NS(=O)(=O)C(C)C)c4)c3n2)ccc1N1CCN(C)CC1 | < 0.25 | 6.4 | EC50 ([2]; UKE1, UKE1): 0.11 µM; EC50 [3, 5]: 0.231 µM |
| CC(C)S(=O)(=O)Nc1cccc(-n2ccc3cnc(Nc4ccc(N5CCN(C)CC5)c(OCCO)c4)nc32)c1 | < 0.25 | 6.4 | EC50 ([2]; UKE1, UKE1): 0.39 µM; EC50 [3, 5]: 0.151 µM |
| COc1cc(Nc2ncc3ccn(-c4cccc(NS(=O)(=O)C(C)C)c4)c3n2)ccc1-c1cnn(C)c1 | < 0.25 | – | – |
| COc1cc(N2CCN(C)CC2)c(F)cc1Nc1ncc2ccn(-c3cccc(NS(=O)(=O)C(C)C)c3)c2n1 | < 0.25 | 4.8 | EC50 ([2]; UKE1, UKE1): 0.94 µM; EC50 [3, 5]: 1.58 µM |
| COc1cc(N2CCN(C)CC2)c(F)cc1Nc1ncc2ccn(CCc3ccccc3)c2n1 | < 0.25 | – | – |
| COc1ccccc1CCn1ccc2cnc(Nc3cc(F)c(N4CCN(C)CC4)cc3OC)nc21 | < 0.25 | – | – |
| CN1CCN(c2ccc(Nc3ncc4ccn(-c5cccc(N6CCCS6(=O)=O)c5)c4n3)cc2F)CC1 | < 0.25 | – | EC50 ([2]; UKE1, UKE1): 0.055 µM; EC50 [3, 5]: 0.84 µM |
| CN1CCN(c2cc(Cl)c(Nc3ncc4ccn(CC5CCCO5)c4n3)cc2F)CC1 (stereo not drawn) | < 0.25 | – | – |
| CN1CCN(c2cc(Cl)c(Nc3ncc4ccn(CC5CCOCC5)c4n3)cc2F)CC1 | < 0.25 | 6.4 | – |
| COc1cc(N2CCN(C)CC2)ccc1Nc1ncc2ccn(-c3cccc(NS(=O)(=O)C(C)C)c3)c2n1 | < 0.25 | 7.6 | EC50 ([2]; UKE1, UKE1): 2.7 µM; EC50 [3, 5]: 5.15 µM |
| COc1c(Nc2ncc3ccn(-c4ccc(NS(=O)(=O)C(C)C)cc4)c3n2)cc(F)c(N2CCN(C)CC2)c1F | < 0.25 | – | – |
| COc1c(Nc2ncc3ccn(CC4CCOCC4)c3n2)cc(F)c(N2CCN(C)CC2)c1F | > 1 | – | – |
| Cc1cc(N2CCN(C)CC2)c(F)cc1Nc1ncc2ccn(-c3cccc(N4CCCCS4(=O)=O)c3)c2n1 | – | 6.2 | – |
| CC(C)S(=O)(=O)Nc1ccc(-n2ccc3cnc(Nc4ccc(N5CCN(C)CC5)c(OCCO)c4)nc32)cc1 | – | 5.3 | – |
| Cc1cc(N2CCN(C)CC2)c(F)cc1Nc1ncc2ccn(-c3ccc(NS(=O)(=O)C(C)C)cc3)c2n1 | – | 7.3 | – |
| CN1CCN(c2ccc(Nc3ncc4ccn(-c5ccc(N6CCCS6(=O)=O)cc5)c4n3)cc2F)CC1 | – | 5.6 | – |

Second part, led by results:

| IC50 [1] [µM] | DSF (ΔTm (° C.)) [4] [°C] | SMILES | other results |
| --- | --- | --- | --- |
| < 0.25 | – | CN1CCN(c2ccc(Nc3ncc4ccn(CC5CCCO5)c4n3)cc2)CC1 (stereo not drawn) | – |
| < 0.25 | – | COc1cc(N2CCN(C)CC2)ccc1Nc1ncc2ccn(CC3CCCO3)c2n1 (stereo not drawn) | – |
| < 0.25 | – | COc1cc(N2CCN(C)CC2)ccc1Nc1ncc2c(F)cn(CC3CCCO3)c2n1 (stereo not drawn) | – |
| < 0.25 | – | CC(C)Oc1cc(Nc2ncc3ccn(CC4CCOCC4)c3n2)ccc1N1CCN(C)CC1 | EC50 ([2]; UKE1, UKE1): 3.1 µM; EC50 [3, 5]: 3.5 µM |
| < 0.25 | – | CN1CCN(c2ccc(Nc3ncc4ccn(CC5CCCO5)c4n3)c(OC3CCC3)c2)CC1 (stereo not drawn) | – |
| < 0.25 | – | Cc1cn(CC2CCCO2)c2nc(Nc3ccc(N4CCN(C)CC4)c(OC(C)C)c3)ncc12 (stereo not drawn) | – |
| < 0.5 | 2.1 | Cc1cn(CC2CCCO2)c2nc(Nc3ccc(-c4cnn(C)c4)c(OC(C)C)c3)ncc12 (stereo not drawn) | – |
| < 0.25 | – | Cc1cn(CC2CCOCC2)c2nc(Nc3ccc(N4CCN(C)CC4)c(OC(C)C)c3)ncc12 | – |
| < 0.25 | – | CC(C)Oc1cc(Nc2ncc3ccn(-c4cccc(NS(=O)(=O)C(C)C)c4)c3n2)ccc1-c1cnn(C)c1 | – |
| < 0.25 | – | COc1cc(N2CCN(C)CC2)c(F)cc1Nc1ncc2ccn(C[C@H]3CCCO3)c2n1 | – |
| < 0.25 | – | COc1cc(N2CCN(C)CC2)c(F)cc1Nc1ncc2ccn(CC3CCOCC3)c2n1 | EC50 ([2]; UKE1, UKE1): > 10 µM; EC50 [3, 5]: > 10 µM |
| < 0.25 | 5.3 | CC(C)Oc1cc(Nc2ncc3ccn(C[C@H]4CCCO4)c3n2)ccc1N1CCN(C)CC1 | EC50 ([2]; UKE1, UKE1): 1 µM; EC50 [3, 5]: 1.1 µM |
| < 0.25 | – | CN1CCN(c2ccc(Nc3ncc4ccn(C[C@H]5CCCO5)c4n3)cc2F)CC1 | – |
| < 0.25 | – | COc1cc(N2CCN(C)CC2)c(F)cc1Nc1ncc2ccn(CC3CCCO3)c2n1 (stereo not drawn) | – |
| < 0.25 | 4.5 | CC(C)S(=O)(=O)Nc1cccc(-n2ccc3cnc(Nc4ccc(N5CCN(C)CC5)c(F)c4)nc32)c1 | EC50 ([2]; UKE1, UKE1): 0.074 µM; EC50 [3, 5]: 0.462 µM |
| < 1 | – | CC(C)Oc1cc(N2CCN(C)CC2)ccc1Nc1ncc2ccn(CCc3ccccc3)c2n1 | – |
| < 0.25 | – | COc1cc(N2CCN(C)CC2)c(F)cc1Nc1ncc2ccn(CCc3ccc(F)cc3)c2n1 | – |
| < 0.25 | – | COc1cc(N2CCN(C)CC2)c(F)cc1Nc1ncc2ccn(CCc3ccccc3Cl)c2n1 | – |
| < 0.25 | – | COc1cc(N2CCN(C)CC2)c(F)cc1Nc1ncc2ccn(-c3cccc(N4CCCS4(=O)=O)c3)c2n1 | – |
| < 0.25 | 5.2 | COc1cc(N2CCN(C)CC2)c(F)cc1Nc1ncc2ccn(-c3ccc(N4CCCS4(=O)=O)cc3)c2n1 | EC50 ([2]; UKE1, UKE1): 1.4 µM; EC50 [3, 5]: 3.94 µM |
| < 0.25 | – | CN1CCN(c2ccc(Nc3ncc4ccn(CC5CCOCC5)c4n3)cc2F)CC1 | – |
| < 0.25 | – | CC(C)S(=O)(=O)Nc1cccc(-n2ccc3cnc(Nc4cc(F)c(N5CCN(C)CC5)cc4Cl)nc32)c1 | – |
| < 0.25 | – | COc1cc(N2CCN(C)CC2)c(F)cc1Nc1ncc2ccn(-c3cccc(N4CCCCS4(=O)=O)c3)c2n1 | EC50 ([2]; UKE1, UKE1): 1.3 µM; EC50 [3, 5]: 3.4 µM |
| < 0.25 | – | CN1CCN(c2cc(Cl)c(Nc3ncc4ccn(-c5cccc(N6CCCCS6(=O)=O)c5)c4n3)cc2F)CC1 | – |
| – | 9.3 | COc1cc(N2CCN(C)CC2)c(F)cc1Nc1ncc2ccn(-c3ccc(NS(=O)(=O)C(C)C)cc3)c2n1 | – |
| – | 6.1 | CC(C)S(=O)(=O)Nc1ccc(-n2ccc3cnc(Nc4ccc(N5CCN(C)CC5)c(F)c4)nc32)cc1 | – |
| – | 6.5 | COc1cc(N2CCN(C)CC2)ccc1Nc1ncc2ccn(-c3ccc(NS(=O)(=O)C(C)C)cc3)c2n1 | – |
| – | 4.4 | COc1cc(N2CCN(C)CC2)c(F)cc1Nc1ncc2ccn(-c3ccc(S(=O)(=O)NC(C)C)cc3)c2n1 | – |
| – | 8.1 | COc1cc(N2CCN(C)CC2)ccc1Nc1ncc2ccn(-c3ccc(S(=O)(=O)NC(C)C)cc3)c2n1 | – |
| – | 7.7 | Cc1cc(N2CCN(C)CC2)c(F)cc1Nc1ncc2ccn(-c3ccc(S(=O)(=O)NC(C)C)cc3)c2n1 | – |
